Results taken from publication PMC11513924, “Addressing the Intracellular Vestibule of the Plasmodial Lactate Transporter PfFNT by p-Substituted Inhibitors Amplifies In Vitro Activity” (Journal of Medicinal Chemistry, 2024).

Key:
[1] = Lipophilicity log D7.4 by HPLC (OECD guideline); type: physicochemical; conditions: RP-8 HPLC column (ZORBAX Eclipse XDB-C8), pH 7.4
Experimental: Lipophilicity was determined according to the OECD Guidelines for the Testing of Chemicals no. […]. Briefly, the test compounds plus 9 standards (4-acetylpyridine, acetanilide, acetophenone, methyl benzoate, ethyl benzoate, benzophenone, phenyl benzoate, diphenyl ether, triphenylamine) were separated by HPLC with UV detection at 220 nm (Waters HPLC 1525 with tunable absorbance detector 486) using an RP-8 column (Agilent Technologies ZORBAX Eclipse XDB-C8 4.6 × 150 mm, 5 μm) at 20 °C. Eluents A (20 mM ammonium formate, pH 7.4) and B (methanol) were used to generate a gradient profile of 80% A–100% B (0–35 min), 100% B (35–37 min), 100% B–80% A (37–42 min), and 80% A (42–55 min) at a flow rate of 0.8 mL min^–1. The dead time was determined via the injection peak caused by the solvent. The log D7.4 values were calculated by correlating the capacity factors with the known values of the standards via polynomial fitting.

HEK293 cells = type: cell-based; conditions: human
Experimental: (§1) HEK293T and HepG2 cells were precultured in Dulbecco’s modified Eagle medium with 10% fetal bovine serum (FBS, Gibco, #10270106) in 96-well plates (Sarstedt, TC-treated, #83.3924) at a density of 20,000 cells per well. For ATP quantification, commercial CellTiterGlo was used according to the manufacturer’s instructions. For the resazurin assay, the culture medium was removed, and the cells were incubated in 120 μL of a 66 μM resazurin solution in PBS (SigmaAldrich, #R7017) at 37 °C for 2 h, for fluorescence read-out (λex/λem = 544/590 nm) using a microplate reader (Spark, Tecan Group). Nuclei were counted by microscopy (ImageXpress MicroXL, Molecular Devices) after fixation with 4% paraformaldehyde in PBS, and 15 min incubation at room temperature with Hoechst33342. Quantification was done using the “Cell Proliferation High-Throughput” algorithm (MetaXpress Software, Molecular Devices). All values were normalized to vehicle control (DMSO).

HepG2 cells = type: cell-based; conditions: human
Experimental: as §1

albumin = experiment: Plasma protein (albumin) binding by ultracentrifugation; type: in vitro ADME; conditions: pooled human plasma; for albumin binding: 5 μM
Experimental: Clearance, half-life and plasma protein binding were assayed at TGC LifeScience, Kolkata, India, as described before.[36] Test compounds were incubated in duplicate in 96-well plates at 1 μM concentration with pooled human liver microsomes in 0.1 M phosphate buffer, pH 7.4 (0.4 mg mL^–1 final protein concentration; XenoTech, Lenexa, KS) in the presence and absence of 1 mM NADPH. Metabolism reactions were stopped by addition of 300 μL of ice-cold acetonitrile containing carbamazepine at 0.0236 μg mL^–1 as an internal standard, collection and analysis of the supernatant by LC–MS/MS (Agilent Rapid Resolution HPLC, AB SCIEX 4500 MS). The relative loss of the test compound over time was used to determine the first order rate constant for calculation of the in vitro intrinsic clearance and half-life.[37] Plasma protein binding was determined by ultracentrifugation from pooled human plasma spiked with 5 μM test compound. Aliquots were transferred immediately (total plasma concentration) or after 1 h at 37 °C (protein bound fraction) to ice-cold acetonitrile containing 0.0236 μg mL^–1 carbamazepine as an internal standard, ultracentrifuged for 4 h at 37 °C (Beckman Optima L-80XP), and analyzed by LC–MS/MS (Agilent Rapid Resolution HPLC, AB SCIEX 4500 QTRAP MS).

PfFNT G107S = target: T1, PfFNT G107S (Plasmodium falciparum, UniProt O77389, G107S); experiment: Yeast-based 14C-lactate transport assay, PfFNT G107S resistance mutant; type: cell-based
T1 construct: expressed in transfected cells; host or cells: Saccharomyces cerevisiae (yeast transport assay; strain as for wild type, inferred from the shared method)
T1 sequence (O77389 1-309 G107S): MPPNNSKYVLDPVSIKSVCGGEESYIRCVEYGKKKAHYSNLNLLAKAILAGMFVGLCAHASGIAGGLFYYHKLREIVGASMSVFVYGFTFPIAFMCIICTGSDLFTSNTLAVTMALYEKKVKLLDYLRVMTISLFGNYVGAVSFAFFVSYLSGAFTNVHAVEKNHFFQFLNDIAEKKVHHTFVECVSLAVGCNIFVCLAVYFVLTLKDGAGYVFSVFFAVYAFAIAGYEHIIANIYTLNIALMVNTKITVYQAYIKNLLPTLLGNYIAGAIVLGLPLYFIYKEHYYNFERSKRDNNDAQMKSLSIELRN
Experimental: Lactate transport functionality of PfFNT was assayed as described before.[4] Briefly, Saccharomyces cerevisiae W303-1A jen1Δady2Δcells[32] (MATa, can1-100, ade2-loc, his3-11-15, leu2-3,-112, trp1-1-1, ura3-1, jen1::kanMX4, ady2::hphMX4) kindly provided by M. Casal expressing PfFNT was grown at 29 °C to an OD600 of 1 (±0.1). Harvested cells were resuspended to an OD600 of 50 (±5) in 50 mM HEPES/Tris, pH 6.8 (±0.1). 10–15 min prior to the assay, 80 μL of yeast suspension were added to 1 μL of DMSO with or without inhibitor in a 1.5 mL reaction tube at 18 °C. Twenty μL of L-lactate solution spiked with [1-^14C]-L-lactate (Hartmann Analytic) was added yielding a 1 mM inward gradient with 0.04 μCi label. Transport was stopped after 30 s by abrupt dilution with 1 mL of ice-cold water, vacuum filtration via GF/C filter membranes (Whatman), and washing with 7 mL of ice-cold water. The radio label was analyzed by liquid scintillation counting in 3 mL of scintillation cocktail (Rotiszint eco plus, Carl Roth) using a Packard TriCarb 2900 TR (PerkinElmer Inc.).
Transport assays in yeast were done in triplicate biological replicates. At least nine technical replicates were measured around the IC50 value, concentrations with no or full inhibition were determined from at least three technical replicates. EC50-values were determined from 2 to 4 biological replicates. IC50 and EC50 curves were fitted by the Hill equation with variable slope (Graph Pad Prism 10). Error bars denote ± SEM (for n ≥ 3) or ± range (for n = 2). For the EC50-value of 7a the error of the fitting of the curve is given. Cytotoxicity was determined from biological triplicates; error is shown as SEM.

Structure (SMILES) | chromatographic logD [1] | concentration above which nuclei count (proliferation) starts to decline slightly (HEK293 cells) | concentration above which nuclei count (proliferation) starts to decline slightly (HepG2 cells) | unbound fraction in plasma (albumin) [%] | albumin binding (albumin) [%] | IC50 (PfFNT G107S) [µM]
CCCNc1ccc(C(=O)/C=C(\O)C(F)(F)C(F)(F)F)cn1 [7e, 4,4,5,5,5-Pentafluoro-3-hydroxy-1-(6-(propylamino)pyridin-3-yl)pent-2-en-1-one] | 3.18 | above 10 μM | above 10 μM | 1.54 | 98.46 | 0.63
CC(=O)Nc1ccc(C(=O)/C=C(\O)C(F)(F)C(F)(F)F)cn1 [8a, N-[5-(4,4,5,5,5-Pentafluoro-3-hydroxypent-2-enoyl)pyridin-2-yl]acetamide] | 1.7 | above 10 μM | above 10 μM | 6.31 | 93.69 | 12
